Data as given in ChEMBL document CHEMBL1201862, “PubChem BioAssay data set” (2004).
Activity calls are given as the source filed them.

Columns and labels:
[1] = molecular target: T1, Sentrin-specific protease 8 (Homo sapiens, UniProt Q96LD8); type: functional
T1 sequence (Q96LD8 whole entry): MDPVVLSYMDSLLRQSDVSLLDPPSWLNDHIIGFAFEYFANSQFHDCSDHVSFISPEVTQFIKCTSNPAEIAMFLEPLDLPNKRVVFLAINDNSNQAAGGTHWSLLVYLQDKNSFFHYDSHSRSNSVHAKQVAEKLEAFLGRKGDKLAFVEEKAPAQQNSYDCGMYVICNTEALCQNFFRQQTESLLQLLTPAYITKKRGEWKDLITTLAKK

[2] = molecular target: T1, Sentrin-specific protease 8; type: functional; remark: listed apart in the source
Caspase-6 = molecular target: T2, Caspase-6 (Homo sapiens, UniProt P55212); assay: inhibition of CASP6 peptide cleavage – biochemical, VEID-R110 fluorescence, cherry-pick, dose response (AID 720632)
T2 sequence (P55212 whole entry): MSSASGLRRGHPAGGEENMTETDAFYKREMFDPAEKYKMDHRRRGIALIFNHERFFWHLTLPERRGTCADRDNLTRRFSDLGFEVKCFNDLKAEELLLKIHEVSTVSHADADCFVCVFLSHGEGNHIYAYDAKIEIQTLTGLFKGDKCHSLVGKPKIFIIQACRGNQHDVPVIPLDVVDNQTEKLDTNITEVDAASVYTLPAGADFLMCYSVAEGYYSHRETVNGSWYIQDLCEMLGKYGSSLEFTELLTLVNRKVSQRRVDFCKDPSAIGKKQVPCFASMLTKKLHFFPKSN

[3] = molecular target: Small ubiquitin-related modifier 1 (Homo sapiens, UniProt P63165); assay: SUMO1 protein-protein binding blockers, potency – biochemical, FRET, dose response (AID 624383); type: functional; conditions: read-out: IC50_Mean
Hexokinase HKDC1 = molecular target: T3, Hexokinase HKDC1 (Homo sapiens, UniProt Q2TB90); assay: inhibition of HKDC1 glucose phosphorylation – biochemical, W721R variant, dose response (AID 504729); type: functional
T3 sequence (Q2TB90 whole entry): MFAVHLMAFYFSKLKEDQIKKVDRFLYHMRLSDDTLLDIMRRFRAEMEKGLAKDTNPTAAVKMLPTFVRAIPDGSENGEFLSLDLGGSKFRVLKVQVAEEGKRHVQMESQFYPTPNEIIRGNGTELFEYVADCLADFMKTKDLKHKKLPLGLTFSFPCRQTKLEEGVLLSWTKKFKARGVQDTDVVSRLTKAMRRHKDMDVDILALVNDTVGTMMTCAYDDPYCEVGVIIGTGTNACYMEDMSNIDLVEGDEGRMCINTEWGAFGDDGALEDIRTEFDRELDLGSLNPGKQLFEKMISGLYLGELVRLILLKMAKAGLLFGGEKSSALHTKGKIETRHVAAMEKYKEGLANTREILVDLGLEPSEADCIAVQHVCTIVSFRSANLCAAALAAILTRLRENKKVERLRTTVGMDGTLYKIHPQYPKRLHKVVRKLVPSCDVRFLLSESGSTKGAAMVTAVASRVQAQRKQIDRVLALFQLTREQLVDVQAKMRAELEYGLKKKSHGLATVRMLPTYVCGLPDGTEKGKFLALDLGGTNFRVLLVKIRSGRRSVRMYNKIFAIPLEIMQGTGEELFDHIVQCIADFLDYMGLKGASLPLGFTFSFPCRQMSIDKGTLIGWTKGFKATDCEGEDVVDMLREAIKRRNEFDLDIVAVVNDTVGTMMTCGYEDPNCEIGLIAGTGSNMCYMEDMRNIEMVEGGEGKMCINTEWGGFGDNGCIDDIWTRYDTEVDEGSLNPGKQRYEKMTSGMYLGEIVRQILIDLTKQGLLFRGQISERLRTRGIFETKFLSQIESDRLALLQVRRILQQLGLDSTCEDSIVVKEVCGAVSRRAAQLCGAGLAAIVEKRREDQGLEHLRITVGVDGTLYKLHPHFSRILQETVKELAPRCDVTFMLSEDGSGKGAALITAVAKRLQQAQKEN

Genome polyprotein = Genome polyprotein (dengue virus type 2, UniProt P29990); assay: flavivirus cap methylation enzyme inhibition – biochemical, confirmation dose response, primary screen (AID 588689); type: functional
[4] = molecular target: T4, Tyrosine-protein phosphatase non-receptor type 22 (Homo sapiens, UniProt Q9Y2R2); type: functional;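 note: confirmatory dose-response retesting of primary uHTS hits against LYP; potency is for inhibition of phosphatase activity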
T4 sequence (Q9Y2R2 whole entry): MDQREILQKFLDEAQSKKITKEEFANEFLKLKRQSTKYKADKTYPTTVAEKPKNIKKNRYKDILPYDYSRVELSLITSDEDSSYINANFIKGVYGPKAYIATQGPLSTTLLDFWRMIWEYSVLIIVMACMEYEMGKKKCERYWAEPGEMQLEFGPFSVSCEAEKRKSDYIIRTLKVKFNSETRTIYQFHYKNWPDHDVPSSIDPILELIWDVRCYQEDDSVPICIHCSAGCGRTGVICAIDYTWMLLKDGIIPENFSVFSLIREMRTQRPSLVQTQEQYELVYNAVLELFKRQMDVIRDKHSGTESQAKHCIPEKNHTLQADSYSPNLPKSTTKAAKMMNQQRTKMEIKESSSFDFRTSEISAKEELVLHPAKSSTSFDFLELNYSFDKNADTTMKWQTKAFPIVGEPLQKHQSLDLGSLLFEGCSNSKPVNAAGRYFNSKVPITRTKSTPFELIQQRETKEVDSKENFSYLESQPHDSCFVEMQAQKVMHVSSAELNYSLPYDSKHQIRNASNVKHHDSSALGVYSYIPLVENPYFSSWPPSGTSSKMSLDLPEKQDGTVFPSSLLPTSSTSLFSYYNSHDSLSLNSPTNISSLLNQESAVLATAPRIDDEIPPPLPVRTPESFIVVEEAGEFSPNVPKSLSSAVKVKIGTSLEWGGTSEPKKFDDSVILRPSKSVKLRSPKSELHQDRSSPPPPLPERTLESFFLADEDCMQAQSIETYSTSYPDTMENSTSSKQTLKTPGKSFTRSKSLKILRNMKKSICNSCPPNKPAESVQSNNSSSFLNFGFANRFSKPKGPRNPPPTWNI

[5] = tested on: Streptococcus sp. 'group A'; assay: Streptococcus pyogenes SK(-)GAS viability under kanamycin – luminescence, BacTiterGlo, confirmation, counter-screen for streptokinase expression inhibitor project, dose response (AID 1900); type: functional, organism-based
Streptococcus = assay: GAS UMAA2166 growth inhibition – luminescence, BacTiterGlo, counter-screen for streptokinase expression inhibitor project, dose response (AID 1915); type: functional, organism-based;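 note: potency for reduction of bacterial viability or growth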

Sequence of Genome polyprotein (P29990 2492-3391 limits assumed): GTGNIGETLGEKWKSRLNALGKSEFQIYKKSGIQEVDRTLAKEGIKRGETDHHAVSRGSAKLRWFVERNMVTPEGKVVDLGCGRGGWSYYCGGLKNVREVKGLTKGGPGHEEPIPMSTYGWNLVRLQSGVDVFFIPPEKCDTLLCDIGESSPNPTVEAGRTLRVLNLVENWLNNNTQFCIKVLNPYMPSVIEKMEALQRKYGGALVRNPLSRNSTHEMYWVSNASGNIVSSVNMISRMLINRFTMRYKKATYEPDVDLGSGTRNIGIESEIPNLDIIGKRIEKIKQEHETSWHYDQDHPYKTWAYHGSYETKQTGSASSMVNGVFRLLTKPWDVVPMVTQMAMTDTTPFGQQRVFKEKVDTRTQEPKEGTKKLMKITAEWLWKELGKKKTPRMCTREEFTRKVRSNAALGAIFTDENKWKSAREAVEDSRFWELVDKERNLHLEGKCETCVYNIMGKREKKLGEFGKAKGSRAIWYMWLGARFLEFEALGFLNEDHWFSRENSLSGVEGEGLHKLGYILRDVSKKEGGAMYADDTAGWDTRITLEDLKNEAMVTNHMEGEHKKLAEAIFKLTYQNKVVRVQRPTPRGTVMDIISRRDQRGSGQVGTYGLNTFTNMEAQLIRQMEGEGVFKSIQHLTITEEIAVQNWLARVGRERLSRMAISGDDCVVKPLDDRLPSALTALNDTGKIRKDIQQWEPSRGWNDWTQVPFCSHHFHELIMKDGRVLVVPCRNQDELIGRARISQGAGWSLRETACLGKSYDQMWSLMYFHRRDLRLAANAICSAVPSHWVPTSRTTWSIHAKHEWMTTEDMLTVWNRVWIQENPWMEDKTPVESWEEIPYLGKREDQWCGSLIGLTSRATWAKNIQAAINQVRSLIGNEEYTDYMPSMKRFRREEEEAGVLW
Sequence of Small ubiquitin-related modifier 1 (P63165 whole entry): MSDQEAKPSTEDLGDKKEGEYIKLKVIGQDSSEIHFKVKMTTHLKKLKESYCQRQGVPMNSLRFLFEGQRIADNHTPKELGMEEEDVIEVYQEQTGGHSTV

`COc1cc(NCCCNC(C)C)c2nccc(C)c2c1` was tested, and the IC50 [1] was 3.89 µM (active), the IC50 [2] was 1.09 µM (active) and the AC50 (Caspase-6) was 33.5 µM (active).
For `CSc1ccc(C=NNc2ccc(S(=O)(=O)Nc3ccccc3C(=O)O)cc2[N+](=O)[O-])cc1`, the IC50 [3] was 50.8 µM (inactive) and the AC50 (Caspase-6) was 6.66 µM (active).
`Cc1oc2c(c1C(=O)c1ccccc1)C(=O)C(=O)c1ccccc1-2` was tested, and the IC50 (Hexokinase HKDC1) was 14.5 µM (active) and the IC50 (Genome polyprotein) was 48.4 µM (active).
In the case of `O=C1CCCC2=C1C1(O)C(=O)c3ccccc3C1(O)O2` (stereo not drawn), the IC50 [1] is reported as 2.52 µM (active) and the IC50 [2] is reported as 6.65 µM (active).
`Nc1ccc2nc3c(O)nc(S)nc3nc2c1` was tested, and the IC50 [4] was 76.3 µM (active) and the IC50 [3] was 17.5 µM (active).
In the case of `CC(/C=C1\SC(=S)N(NS(=O)(=O)c2ccccc2)C1=O)=C\c1ccccc1`, the EC50 [5] is reported as 1.94 µM (active), the EC50 (Streptococcus) is reported as > 150 µM (not active) and the IC50 (Genome polyprotein) is reported as 29.3 µM (active).
`CCN1/C(=C/c2ccc3cc(C)ccc3[n+]2CC)Sc2cc(C)c(C)cc21` was tested, and the EC50 [5] was 8.22 µM (active) and the EC50 (Streptococcus) was 8.85 µM (active).
In the case of `O=C(O)COc1ccc(/C=N/NC(=O)c2ccc(-c3csc(Nc4ccc(Cl)cc4)n3)cc2)cc1`, the IC50 [4] is reported as < 1.24 µM (active) and the IC50 (Hexokinase HKDC1) is reported as 33 µM (inactive).
